In patent US20080312322A1, “Organic Compounds” (priority 2005, published 2008):

Tests used:
CRTh2 receptor [1] = target: T1, CRTh2 receptor (Homo sapiens, UniProt Q9Y5Y4); test: Scintillation Proximity Assay (SPA) binding assay, 3H PGD2; parameters: expressed in transfected cells; host or cells: K562 or CHO cells, membranes; conditions: membranes from K562 or CHO cells stably transfected with human CRTh2; 3H prostaglandin D2
T1 sequence (Q9Y5Y4 1-395): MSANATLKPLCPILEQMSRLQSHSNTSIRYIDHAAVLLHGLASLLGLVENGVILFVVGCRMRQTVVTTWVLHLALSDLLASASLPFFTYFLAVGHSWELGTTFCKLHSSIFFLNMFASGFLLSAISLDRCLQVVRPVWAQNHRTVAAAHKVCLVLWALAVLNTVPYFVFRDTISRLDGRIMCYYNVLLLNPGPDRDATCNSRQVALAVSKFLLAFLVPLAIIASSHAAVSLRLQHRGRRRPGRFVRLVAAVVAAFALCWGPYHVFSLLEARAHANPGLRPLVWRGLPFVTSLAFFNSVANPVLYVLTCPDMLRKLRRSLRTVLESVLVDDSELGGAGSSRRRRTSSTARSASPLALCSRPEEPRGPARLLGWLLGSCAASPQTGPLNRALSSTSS
Experimental: Scintillation Proximity Assay (SPA) protocol
Membranes are prepared from K562 or Chinese Hamster Ovary (CHO) cells stably transfected with human CRTh2 receptors.
The assay is performed in a 96-well U-bottomed polypropylene plate in a final volume of 100 μL and the components of the assay are added as follows: test compound in DMSO/assay buffer (25 μL), ^3H prostaglandin D2 (PGD2) (25 μL) and CRTh2 membrane fragments (50 μL). The assay is incubated at ambient temperature with shaking for 60 minutes, then harvested on to filter plates. The plate is dried for 2 hours, prior to addition of Micro-Scint 20M (50 μL) and sealing with TopSeal-S™. Plates are then counted using a Packard Top Count instrument, each well being counted for 20 minutes. Ki values are determined using Sigma Plot™ software.

CRTh2 receptor [2] = target: T1, CRTh2 receptor; test: CRTh2 cAMP functional assay; assay type: cell-based; parameters: expressed in transfected cells; host or cells: CHO cells; conditions: CHO cells stably transfected with CRTh2; 10 nM PGD2 and 5 μM forskolin; cAMP Alphascreen
Experimental: CRTh2 cAMP Assay Protocol
Test compounds are prepared in assay stimulation buffer/DMSO and 5 μL/well is added to an assay plate (384-well white opti-plate).
CHO cells stably transfected with the CRTh2 receptor are prepared (dissociated from a cell culture flask and washed in PBS) to a concentration of 4×10^6/mL in assay stimulation buffer and added to the assay plate (10 μL/well).
The assay plate is incubated at room temperature on a shaker for 15 minutes.
A mix of agonist (10 nM PGD2) and 5 μM forskolin is prepared in assay stimulation buffer and added to the assay plate (5 μL/well).
In addition, a cAMP standard is serially diluted in assay stimulation buffer and added to separate empty wells on the assay plate (20 μL/well).
The assay plate is incubated at room temperature on a shaker for 60 minutes.
A cell lysis mix (lysis buffer containing Alphascreen™ donor beads and biotinylated cAMP) is prepared under darkened conditions 60 minutes prior to addition. Alphascreen™ acceptor beads are added to the lysis mix after 60 minutes. […]
The assay plate is sealed with Topseal-S™ and incubated in the dark at room temperature on a shaker for 45 minutes. The plate is then counted using a Packard Fusion™ instrument.
The resulting counts per minute are converted to nM cAMP by using the prepared cAMP standard curve. IC50 values are then determined using Prism™ software.

| SMILES | Ki (CRTh2 receptor [1]) [nM] | IC50 (CRTh2 receptor [2]) [nM] |
| --- | --- | --- |
| CC(C)(Oc1ccc(Cl)cc1Cc1cc(Cl)ccc1OCC(=O)O)C(=O)O [Example 13, 2-[2-(2-carboxymethoxy-5-chloro-benzyl)-4-chloro-phenoxy]-2-methyl-propionic acid] | 58 | 52 |
| CCOC(=O)COc1ccc(Cl)cc1Cc1cc(Cl)ccc1OCC(=O)O [Example 2, [4-chloro-2-(5-chloro-2-ethoxycarbonylmethoxy-benzyl)-phenoxy]-acetic acid] | – | 68 |
